Assay results: patent publication EP0088621A2, “Compositions for use in accelerating onset of sleep” (MASSACHUSETTS INSTITUTE OF TECHNOLOGY, priority 1982, dated 1983)

Parameters: species or system Normal adult volunteers
Conditions: in vivo
Procedure: Normal adult volunteers consumed 1 g of tryptophan; with or without 10 g of glucose; blood samples were assayed for tryptophan, LNAA, and their ratio after various intervals. Control subjects received only the tryptophan. The results are shown in Table I, 1 hour after administration.

increase of the plasma tryptophan/LNAA ratio by glucose: 40-50%
SMILES: OC[C@H]1OC(O)[C@H](O)[C@@H](O)[C@@H]1O (stereo partly shown) [glucose]
